# Source: patent publication US20260262643A1, “HERBICIDAL BENZOXAZINES” (FMC CORPORATION, priority 2022, published 2026)
# What was measured:
# blackgrass [1] = experiment: Test A preemergence; format: in vivo, Alopecurus myosuroides
# How it was run: (§1)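 Loam/sand soil; pre-em directed soil spray at planting, post-em spray at 1–2 leaf (2–10 cm). Compound in non-phytotoxic solvent + surfactant. Greenhouse 10 d; visual injury vs untreated, 0 = no effect, 100 = complete control.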
# foxtail, giant [2] = experiment: Test A postemergence; format: in vivo, Setaria faberi; details: postemergence, 10 days; for Foxtail, Giant plant response rating: 125 g ai/ha, 0 to 100 scale, 0 no effect, 100 complete control; for Plant response rating, Foxtail, Giant: 500 g ai/ha, visual injury, 0 to 100 scale (0 no effect, 100 complete control)
# How it was run: as §1
# oat, wild [3] = experiment: Test A postemergence; format: in vivo, Avena fatua; details: postemergence, 10 days; for Oat, Wild plant response rating: 125 g ai/ha, 0 to 100 scale, 0 no effect, 100 complete control; for Plant response rating, Oat, Wild: 500 g ai/ha, visual injury, 0 to 100 scale (0 no effect, 100 complete control)
# How it was run: as §1
# barnyardgrass = experiment: Test B flooded paddy test; format: in vivo, Echinochloa crus-galli; details: 250 g ai/ha, Flood, 13 days, 0 to 100 scale (0 no effect, 100 complete control)
# How it was run: (§2)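 Plants at the 2-leaf stage were flooded to 3 cm above the soil, and test compounds were applied directly into the paddy water, with that depth held throughout. After 13 days in a greenhouse, injury was rated visually against untreated controls on a 0–100 scale (100 = complete control).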
# ryegrass, Italian [4] = experiment: Test A preemergence; format: in vivo, Lolium multiflorum
# How it was run: as §1
# kochia [5] = experiment: Test A preemergence; format: in vivo, Bassia scoparia
# How it was run: as §1
# foxtail, giant [6] = experiment: Test A preemergence; format: in vivo, Setaria faberi
# How it was run: as §1
# wheat [7] = experiment: Test A postemergence; format: in vivo, Triticum aestivum; details: postemergence, 10 days; for Wheat plant response rating: 125 g ai/ha, 0 to 100 scale, 0 no effect, 100 complete control; for Plant response rating, Wheat: 500 g ai/ha, visual injury, 0 to 100 scale (0 no effect, 100 complete control)
# How it was run: as §1
# corn [8] = experiment: Test A postemergence; format: in vivo, Zea mays; details: postemergence, 10 days; for Corn plant response rating: 125 g ai/ha, 0 to 100 scale, 0 no effect, 100 complete control; for Plant response rating, Corn: 500 g ai/ha, visual injury, 0 to 100 scale (0 no effect, 100 complete control)
# How it was run: as §1
# wheat [9] = experiment: Test A preemergence; format: in vivo, Triticum aestivum
# How it was run: as §1
# blackgrass [10] = experiment: Test A postemergence; format: in vivo, Alopecurus myosuroides; details: postemergence, 10 days; for Blackgrass plant response rating: 125 g ai/ha, 0 to 100 scale, 0 no effect, 100 complete control; for Plant response rating, Blackgrass: 500 g ai/ha, visual injury, 0 to 100 scale (0 no effect, 100 complete control)
# How it was run: as §1
# sedge, umbrella = experiment: Test B flooded paddy test; format: in vivo, Cyperus difformis; details: 250 g ai/ha, Flood, 13 days, 0 to 100 scale (0 no effect, 100 complete control)
# How it was run: as §2
# kochia [11] = experiment: Test A postemergence; format: in vivo, Bassia scoparia; details: postemergence, 10 days; for Kochia plant response rating: 125 g ai/ha, 0 to 100 scale, 0 no effect, 100 complete control; for Plant response rating, Kochia: 500 g ai/ha, visual injury, 0 to 100 scale (0 no effect, 100 complete control)
# How it was run: as §1
# rice = experiment: Test B flooded paddy test; format: in vivo, Oryza sativa; details: 250 g ai/ha, Flood, 13 days, 0 to 100 scale (0 no effect, 100 complete control)
# How it was run: as §2
# ragweed [12] = experiment: Test A preemergence; format: in vivo, Ambrosia artemisiifolia
# How it was run: as §1
# soybean [13] = experiment: Test A postemergence; format: in vivo, Glycine max; details: postemergence, 10 days; for Soybean plant response rating: 125 g ai/ha, 0 to 100 scale, 0 no effect, 100 complete control; for Plant response rating, Soybean: 500 g ai/ha, visual injury, 0 to 100 scale (0 no effect, 100 complete control)
# How it was run: as §1
# oat, wild [14] = experiment: Test A preemergence; format: in vivo, Avena fatua
# How it was run: as §1
# goosegrass [15] = experiment: Test A preemergence; format: in vivo, Eleusine indica
# How it was run: as §1
# ryegrass, Italian [16] = experiment: Test A postemergence; format: in vivo, Lolium multiflorum; details: postemergence, 10 days; for Ryegrass, Italian plant response rating: 125 g ai/ha, 0 to 100 scale, 0 no effect, 100 complete control; for Plant response rating, Ryegrass, Italian: 500 g ai/ha, visual injury, 0 to 100 scale (0 no effect, 100 complete control)
# How it was run: as §1
# pigweed, palmer [17] = experiment: Test A postemergence; format: in vivo, Amaranthus palmeri; details: postemergence, 10 days; for Pigweed, Palmer plant response rating: 125 g ai/ha, 0 to 100 scale, 0 no effect, 100 complete control; for Plant response rating, Pigweed, Palmer: 500 g ai/ha, visual injury, 0 to 100 scale (0 no effect, 100 complete control)
# How it was run: as §1
# goosegrass [18] = experiment: Test A postemergence; format: in vivo, Eleusine indica; details: postemergence, 10 days; for Goosegrass plant response rating: 125 g ai/ha, 0 to 100 scale, 0 no effect, 100 complete control; for Plant response rating, Goosegrass: 500 g ai/ha, visual injury, 0 to 100 scale (0 no effect, 100 complete control)
# How it was run: as §1
# horseweed = experiment: Test A postemergence; format: in vivo, Erigeron canadensis; details: postemergence, 10 days; for Horseweed plant response rating: 125 g ai/ha, 0 to 100 scale, 0 no effect, 100 complete control; for Plant response rating, Horseweed: 500 g ai/ha, visual injury, 0 to 100 scale (0 no effect, 100 complete control)
# How it was run: as §1
# ducksalad = experiment: Test B flooded paddy test; format: in vivo, Heteranthera limosa; details: 250 g ai/ha, Flood, 13 days, 0 to 100 scale (0 no effect, 100 complete control)
# How it was run: as §2
# soybean [19] = experiment: Test A preemergence; format: in vivo, Glycine max
# How it was run: as §1
# corn [20] = experiment: Test A preemergence; format: in vivo, Zea mays
# How it was run: as §1
# ragweed [21] = experiment: Test A postemergence; format: in vivo, Ambrosia artemisiifolia; details: postemergence, 10 days; for Ragweed plant response rating: 125 g ai/ha, 0 to 100 scale, 0 no effect, 100 complete control; for Plant response rating, Ragweed: 500 g ai/ha, visual injury, 0 to 100 scale (0 no effect, 100 complete control)
# How it was run: as §1
# pigweed, palmer [22] = experiment: Test A preemergence; format: in vivo, Amaranthus palmeri
# How it was run: as §1
# galium = experiment: Test A postemergence; format: in vivo, Galium aparine; details: postemergence, 10 days; for Galium plant response rating: 125 g ai/ha, 0 to 100 scale, 0 no effect, 100 complete control; for Plant response rating, Galium: 500 g ai/ha, visual injury, 0 to 100 scale (0 no effect, 100 complete control)
# How it was run: as §1
# [23] = 125 g ai/ha, visual injury after 10 days, 0 to 100 scale, 0 is no effect, 100 is complete control
# [24] = 500 g ai/ha, 0 to 100 scale (0 no effect, 100 complete control), 10 days
# [25] = 500 g ai/ha, visual injury after 10 days, 0 to 100 scale, 0 is no effect, 100 is complete control
smiles,measurement,setting,value
CC(C)Oc1ccc(-n2cnc(C(C)C)n2)cc1C(=O)N1C[C@H](C)Oc2c(Cl)cccc21 [Compound 108],"Plant response rating, Blackgrass",blackgrass [1]; [23],0
same,"Plant response rating, Blackgrass",blackgrass [1]; [24],40
same,"Foxtail, Giant plant response rating","foxtail, giant [2]",70
same,"Plant response rating, Foxtail, Giant","foxtail, giant [2]",90
same,"Oat, Wild plant response rating","oat, wild [3]",20
same,"Plant response rating, Oat, Wild","oat, wild [3]",70
same,"Plant response rating, Barnyardgrass",barnyardgrass,55
same,"Plant response rating, Ryegrass, Italian","ryegrass, Italian [4]; [23]",80
same,"Plant response rating, Ryegrass, Italian","ryegrass, Italian [4]; [24]",100
same,"Plant response rating, Kochia",kochia [5]; [23],0
same,"Plant response rating, Kochia",kochia [5]; [24],80
same,"Plant response rating, Foxtail, Giant","foxtail, giant [6]; [23]",90
same,"Plant response rating, Foxtail, Giant","foxtail, giant [6]; [24]",100
same,Wheat plant response rating,wheat [7],10
same,"Plant response rating, Wheat",wheat [7],30
same,Corn plant response rating,corn [8],40
same,"Plant response rating, Corn",corn [8],60
same,"Plant response rating, Wheat",wheat [9]; [23],30
same,"Plant response rating, Wheat",wheat [9]; [24],40
same,Blackgrass plant response rating,blackgrass [10],30
same,"Plant response rating, Blackgrass",blackgrass [10],30
same,"Plant response rating, Sedge, Umbrella","sedge, umbrella",80
same,Kochia plant response rating,kochia [11],70
same,"Plant response rating, Kochia",kochia [11],90
same,"Plant response rating, Rice",rice,10
same,"Plant response rating, Ragweed",ragweed [12]; [23],30
same,"Plant response rating, Ragweed",ragweed [12]; [24],90
same,Soybean plant response rating,soybean [13],100
same,"Plant response rating, Soybean",soybean [13],100
same,"Plant response rating, Oat, Wild","oat, wild [14]; [23]",30
same,"Plant response rating, Oat, Wild","oat, wild [14]; [24]",30
same,"Plant response rating, Goosegrass",goosegrass [15]; [23],100
same,"Plant response rating, Goosegrass",goosegrass [15]; [24],100
same,"Ryegrass, Italian plant response rating","ryegrass, Italian [16]",20
same,"Plant response rating, Ryegrass, Italian","ryegrass, Italian [16]",40
same,"Pigweed, Palmer plant response rating","pigweed, palmer [17]",70
same,"Plant response rating, Pigweed, Palmer","pigweed, palmer [17]",70
same,Goosegrass plant response rating,goosegrass [18],80
same,"Plant response rating, Goosegrass",goosegrass [18],90
same,Horseweed plant response rating,horseweed,10
same,"Plant response rating, Horseweed",horseweed,20
same,"Plant response rating, Ducksalad",ducksalad,20
same,"Plant response rating, Soybean",soybean [19]; [23],50
same,"Plant response rating, Soybean",soybean [19]; [24],100
same,"Plant response rating, Corn",corn [20]; [23],0
same,"Plant response rating, Corn",corn [20]; [24],30
same,Ragweed plant response rating,ragweed [21],60
same,"Plant response rating, Ragweed",ragweed [21],60
same,"Plant response rating, Pigweed, Palmer","pigweed, palmer [22]; [23]",100
same,"Plant response rating, Pigweed, Palmer","pigweed, palmer [22]; [24]",100
same,Galium plant response rating,galium,80
same,"Plant response rating, Galium",galium,90
Cc1cccc2c1O[C@@H](C)CN2C(=O)c1cccc(-n2cnn(C(C)C)c2=O)c1 [Compound 118],"Plant response rating, Blackgrass",blackgrass [1]; [23],20
same,"Plant response rating, Blackgrass",blackgrass [1]; [25],70
same,"Foxtail, Giant plant response rating","foxtail, giant [2]",10
same,"Plant response rating, Foxtail, Giant","foxtail, giant [2]",50
same,"Oat, Wild plant response rating","oat, wild [3]",10
same,"Plant response rating, Oat, Wild","oat, wild [3]",90
same,"Plant response rating, Barnyardgrass",barnyardgrass,0
same,"Plant response rating, Ryegrass, Italian","ryegrass, Italian [4]; [23]",70
same,"Plant response rating, Ryegrass, Italian","ryegrass, Italian [4]; [25]",100
same,"Plant response rating, Kochia",kochia [5]; [23],0
same,"Plant response rating, Kochia",kochia [5]; [25],70
same,"Plant response rating, Foxtail, Giant","foxtail, giant [6]; [23]",20
same,"Plant response rating, Foxtail, Giant","foxtail, giant [6]; [25]",100
same,Wheat plant response rating,wheat [7],10
same,"Plant response rating, Wheat",wheat [7],30
same,Corn plant response rating,corn [8],0
same,"Plant response rating, Corn",corn [8],70
same,"Plant response rating, Wheat",wheat [9]; [23],0
same,"Plant response rating, Wheat",wheat [9]; [25],30
same,Blackgrass plant response rating,blackgrass [10],0
same,"Plant response rating, Blackgrass",blackgrass [10],70
same,"Plant response rating, Sedge, Umbrella","sedge, umbrella",0
same,Kochia plant response rating,kochia [11],30
same,"Plant response rating, Kochia",kochia [11],80
same,"Plant response rating, Rice",rice,0
same,"Plant response rating, Ragweed",ragweed [12]; [23],0
same,"Plant response rating, Ragweed",ragweed [12]; [25],30
same,Soybean plant response rating,soybean [13],40
same,"Plant response rating, Soybean",soybean [13],80
same,"Plant response rating, Oat, Wild","oat, wild [14]; [23]",30
same,"Plant response rating, Oat, Wild","oat, wild [14]; [25]",90
same,"Plant response rating, Goosegrass",goosegrass [15]; [23],90
same,"Plant response rating, Goosegrass",goosegrass [15]; [25],100
same,"Ryegrass, Italian plant response rating","ryegrass, Italian [16]",10
same,"Plant response rating, Ryegrass, Italian","ryegrass, Italian [16]",60
same,"Pigweed, Palmer plant response rating","pigweed, palmer [17]",0
same,"Plant response rating, Pigweed, Palmer","pigweed, palmer [17]",20
same,Goosegrass plant response rating,goosegrass [18],20
same,"Plant response rating, Goosegrass",goosegrass [18],40
same,Horseweed plant response rating,horseweed,0
same,"Plant response rating, Horseweed",horseweed,0
same,"Plant response rating, Ducksalad",ducksalad,0
same,"Plant response rating, Soybean",soybean [19]; [23],40
same,"Plant response rating, Soybean",soybean [19]; [25],60
same,"Plant response rating, Corn",corn [20]; [23],0
same,"Plant response rating, Corn",corn [20]; [25],30
same,Ragweed plant response rating,ragweed [21],0
same,"Plant response rating, Ragweed",ragweed [21],30
same,"Plant response rating, Pigweed, Palmer","pigweed, palmer [22]; [23]",40
same,"Plant response rating, Pigweed, Palmer","pigweed, palmer [22]; [25]",100
same,Galium plant response rating,galium,10
same,"Plant response rating, Galium",galium,30
